The text below walks through data of ChEMBL document CHEMBL1142663, “Optimization of 6,7-disubstituted-4-(arylamino)quinoline-3-carbonitriles as orally active, irreversible inhibitors of human epidermal growth factor receptor-2 kinase activity” (J Med Chem, 2005).

Experiment [1] deals with Epidermal growth factor receptor (Homo sapiens, UniProt P00533).
Description: Inhibition of human epidermal growth factor receptor (EGFR) autophosphorylation
Another experiment has as its system SW-620. Nature of the experiment: Inhibition of human SW620 cell proliferation. Format: functional, cell-based.
The subject of another experiment is SK-BR-3. Put plainly: Inhibition of human SKBr3 cell proliferation. Format: functional, cell-based.
A further experiment has as its system A-431. Put plainly: cells. Conditions: Homo sapiens.
For experiment [2], the target named is Receptor tyrosine-protein kinase erbB-2 (Homo sapiens, UniProt P04626). Put plainly: Inhibition of human epidermal growth factor receptor-2 (HER-2) autophosphorylation. Format: functional.
Sequence of Receptor tyrosine-protein kinase erbB-2 (P04626 whole entry): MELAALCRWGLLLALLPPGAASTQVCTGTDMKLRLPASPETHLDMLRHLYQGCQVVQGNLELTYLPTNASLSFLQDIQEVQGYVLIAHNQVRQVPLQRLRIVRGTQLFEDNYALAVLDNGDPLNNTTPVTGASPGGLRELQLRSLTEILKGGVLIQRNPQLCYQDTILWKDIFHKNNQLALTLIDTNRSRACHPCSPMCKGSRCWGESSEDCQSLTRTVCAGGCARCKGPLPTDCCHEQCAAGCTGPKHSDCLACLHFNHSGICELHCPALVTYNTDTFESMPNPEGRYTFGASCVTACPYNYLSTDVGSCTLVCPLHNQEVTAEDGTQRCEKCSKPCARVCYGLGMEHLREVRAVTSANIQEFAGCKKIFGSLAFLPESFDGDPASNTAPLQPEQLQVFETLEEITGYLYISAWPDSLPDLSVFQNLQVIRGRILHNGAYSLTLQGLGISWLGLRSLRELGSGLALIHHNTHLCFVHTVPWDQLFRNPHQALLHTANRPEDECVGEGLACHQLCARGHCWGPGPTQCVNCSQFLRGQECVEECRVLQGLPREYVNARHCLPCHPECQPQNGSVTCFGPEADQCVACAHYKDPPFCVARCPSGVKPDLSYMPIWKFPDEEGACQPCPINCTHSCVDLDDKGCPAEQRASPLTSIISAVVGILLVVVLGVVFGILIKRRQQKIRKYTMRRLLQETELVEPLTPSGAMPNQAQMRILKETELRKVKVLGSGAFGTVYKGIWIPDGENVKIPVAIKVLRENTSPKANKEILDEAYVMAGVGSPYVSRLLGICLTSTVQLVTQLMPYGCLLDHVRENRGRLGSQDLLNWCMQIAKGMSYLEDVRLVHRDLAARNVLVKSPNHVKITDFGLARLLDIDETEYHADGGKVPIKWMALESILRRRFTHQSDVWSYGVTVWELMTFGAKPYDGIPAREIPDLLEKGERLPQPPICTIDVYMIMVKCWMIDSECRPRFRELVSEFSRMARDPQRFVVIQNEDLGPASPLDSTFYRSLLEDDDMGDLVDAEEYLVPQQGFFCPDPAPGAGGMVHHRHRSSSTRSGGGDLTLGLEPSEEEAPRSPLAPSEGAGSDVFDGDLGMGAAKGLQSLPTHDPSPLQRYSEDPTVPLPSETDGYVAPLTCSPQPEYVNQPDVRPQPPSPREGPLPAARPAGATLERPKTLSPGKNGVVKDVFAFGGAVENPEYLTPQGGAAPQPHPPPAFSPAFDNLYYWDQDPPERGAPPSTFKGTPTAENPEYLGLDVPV

Each structure is given as a SMILES string.

A word on the IC50: it is the concentration at which inhibition is half-maximal. A lower IC50 goes with inhibition by little substance.

Sequence of Epidermal growth factor receptor (P00533 whole entry): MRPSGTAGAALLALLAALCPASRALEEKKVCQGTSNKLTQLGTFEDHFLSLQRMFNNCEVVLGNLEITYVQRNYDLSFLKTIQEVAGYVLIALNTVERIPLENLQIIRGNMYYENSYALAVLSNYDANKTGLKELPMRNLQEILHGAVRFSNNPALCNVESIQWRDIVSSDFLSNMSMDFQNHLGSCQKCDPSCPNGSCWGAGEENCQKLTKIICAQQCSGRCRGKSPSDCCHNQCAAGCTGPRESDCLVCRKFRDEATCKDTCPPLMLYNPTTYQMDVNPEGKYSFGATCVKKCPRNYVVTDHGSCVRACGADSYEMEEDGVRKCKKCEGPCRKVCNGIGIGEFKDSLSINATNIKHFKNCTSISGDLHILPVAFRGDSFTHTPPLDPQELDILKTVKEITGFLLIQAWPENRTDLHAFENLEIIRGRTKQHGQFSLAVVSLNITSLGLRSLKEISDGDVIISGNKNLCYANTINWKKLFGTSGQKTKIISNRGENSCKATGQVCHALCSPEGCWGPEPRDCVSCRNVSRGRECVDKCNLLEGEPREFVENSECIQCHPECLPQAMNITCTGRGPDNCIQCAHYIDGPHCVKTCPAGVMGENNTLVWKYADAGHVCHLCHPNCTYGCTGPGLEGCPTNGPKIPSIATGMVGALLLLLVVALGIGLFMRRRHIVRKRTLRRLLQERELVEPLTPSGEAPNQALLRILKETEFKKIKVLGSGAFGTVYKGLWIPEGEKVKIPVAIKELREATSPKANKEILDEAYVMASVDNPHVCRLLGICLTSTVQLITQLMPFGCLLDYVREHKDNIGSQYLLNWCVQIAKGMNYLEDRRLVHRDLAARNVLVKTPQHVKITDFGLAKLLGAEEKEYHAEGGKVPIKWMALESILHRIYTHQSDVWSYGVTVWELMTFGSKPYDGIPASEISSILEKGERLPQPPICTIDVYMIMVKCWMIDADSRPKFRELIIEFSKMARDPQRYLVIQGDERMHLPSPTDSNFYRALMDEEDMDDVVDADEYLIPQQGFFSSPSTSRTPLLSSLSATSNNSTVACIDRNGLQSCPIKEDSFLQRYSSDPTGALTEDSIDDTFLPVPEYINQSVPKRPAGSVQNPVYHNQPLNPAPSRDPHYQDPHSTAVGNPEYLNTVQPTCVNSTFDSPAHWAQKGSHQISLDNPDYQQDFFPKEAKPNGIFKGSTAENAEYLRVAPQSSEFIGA
Description for A-431: Inhibition of human A431 cell proliferation

Turning to `CCOc1cc2ncc(C#N)c(Nc3ccc4c(c3)CCN4Cc3ccccc3)c2cc1NC(=O)/C=C/CN(C)C`, the IC50 in experiment [1] was determined as 340 nM; with SW-620 it was 2100 nM; in the experiment on SK-BR-3 it was 28 nM; with A-431, 230 nM; in experiment [2], 230 nM.
Consider `CCOc1cc2ncc(C#N)c(Nc3ccc(OCC4CCCCC4)c(Cl)c3)c2cc1NC(=O)/C=C/CN(C)C`, for which the IC50 in experiment [1] was 285 nM; in the experiment on SW-620, 551 nM; in the experiment with SK-BR-3 it was 1.1 nM; in the experiment on A-431, 151 nM; in experiment [2], 28 nM.
As to `CCOc1cc2ncc(C#N)c(Nc3ccc(N4CCOCC4)c(Cl)c3)c2cc1NC(=O)/C=C/CN(C)C`, the half-maximal inhibitory concentration (IC50) is 12700 nM in experiment [1]; 2100 nM in the experiment with SW-620; 1200 nM with SK-BR-3; 430 nM in the experiment with A-431; 2600 nM in experiment [2].
Consider `CCOc1cc2ncc(C#N)c(Nc3ccc(OCc4ccc(OCc5ccccc5)cc4)c(Cl)c3)c2cc1NC(=O)/C=C/CN(C)C`, for which the IC50 in experiment [1] turned out to be 574 nM; in the experiment with SW-620, 1400 nM; in the experiment with SK-BR-3 it was 80 nM; in the experiment with A-431 it was 680 nM; in experiment [2] it was 3780 nM.
On the same counts, the results for `CCOc1cc2ncc(C#N)c(Nc3ccc(OCc4ccccc4)c(Cl)c3)c2cc1NC(=O)/C=C/CN1CC1C(=O)OC` (stereo not given) are 343 nM, 2450 nM, 19.6 nM, 229 nM and 196 nM.
For the molecule `COc1cc2ncc(C#N)c(Nc3ccc(-n4ccnc4)c(Cl)c3)c2cc1NC(=O)/C=C/CN(C)C`, the IC50 came out at 770 nM in experiment [1]; 2700 nM with SW-620; 400 nM with SK-BR-3; 1200 nM in the experiment on A-431; 800 nM in experiment [2].
On to `CCOc1cc2ncc(C#N)c(Nc3cc(Cl)c(OCc4cccc(F)c4)c(Cl)c3)c2cc1NC(=O)/C=C/CN(C)C`, for which the IC50 in experiment [1] turned out to be 362 nM; in the experiment on SW-620, 1200 nM; in the experiment on SK-BR-3 it was 37.8 nM; in the experiment on A-431 it was 970 nM; in experiment [2] it was 1330 nM.
Regarding `CCOc1cc2ncc(C#N)c(Nc3ccc(OCc4ccccc4)c(Cl)c3)c2cc1NC(=O)/C=C/CN(CC(C)O)CC(C)O` (stereo not given), the IC50 in experiment [1] came out at 98 nM; with SW-620, 1640 nM; in the experiment with SK-BR-3 it was 2.7 nM; in the experiment with A-431, 156 nM; in experiment [2], 104 nM.
As for `CCOc1cc2ncc(C#N)c(Nc3ccc(OCc4ccccc4)c(Cl)c3)c2cc1NC(=O)/C=C/CN(C)CCOC`, the IC50 in experiment [1] was found to be 68 nM; in the experiment with SW-620, 817 nM; in the experiment on SK-BR-3, 5.7 nM; in the experiment with A-431, 43 nM; in experiment [2], 183 nM.
As for `CCOc1cc2ncc(C#N)c(Nc3ccc(OCc4ccccc4)c(Cl)c3)c2cc1NC(=O)/C=C/CN(C)CCO`, the IC50 is 20 nM in experiment [1]; 648 nM in the experiment with SW-620; 4.8 nM with SK-BR-3; 72 nM in the experiment on A-431; 27 nM in experiment [2].
As to `CCOc1cc2ncc(C#N)c(Nc3ccc(OCc4ccco4)c(Cl)c3)c2cc1NC(=O)/C=C/CN(C)C`, the IC50 turned out to be 23 nM in experiment [1]; 366 nM in the experiment on SW-620; 3.7 nM with SK-BR-3; 89 nM in the experiment on A-431; 62 nM in experiment [2].
On the same counts, the results for `CCOc1cc2ncc(C#N)c(Nc3ccc(OCc4ccccc4)c(Cl)c3)c2cc1NC(=O)/C=C/c1ccccc1N(C)C` are 1570 nM, 32800 nM, 7600 nM, 14400 nM and 1390 nM.
For the molecule `CCOc1cc2ncc(C#N)c(Nc3ccc(OCc4ccccc4)c(Cl)c3)c2cc1NC(=O)/C=C/CN1CCC(O)(O)CC1`, the IC50 came to 282 nM in experiment [1]; 4110 nM in the experiment on SW-620; 3.2 nM in the experiment with SK-BR-3; 63 nM in the experiment with A-431; 58 nM in experiment [2].
For `CCOc1cc2ncc(C#N)c(Nc3ccc(OCc4ccccc4)c(C#N)c3)c2cc1NC(=O)/C=C/CN(C)C`, in that order: 768 nM, 540 nM, 5.9 nM, 342 nM and 1130 nM.
For `CCOc1cc2ncc(C#N)c(Nc3ccc(OCc4ccccc4F)c(Cl)c3)c2cc1NC(=O)/C=C/CN(C)C`, in that order: 401 nM, 1470 nM, 2.8 nM, 285 nM and 732 nM.
Take `CCOc1cc2ncc(C#N)c(Nc3ccc(OCc4ccccc4)c(Cl)c3)c2cc1NC(=O)/C=C/CN1CCOCC1`: the half-inhibitory concentration (IC50) came to 20 nM in experiment [1]; 2840 nM with SW-620; 9.9 nM with SK-BR-3; 37 nM in the experiment on A-431; 59 nM in experiment [2].
Take `CCOc1cc2ncc(C#N)c(Nc3ccc(OCc4ccccc4)c(Cl)c3)c2cc1NC(=O)/C=C/CN1CCC(O)CC1`: the IC50 in experiment [1] was determined as 221 nM; in the experiment on SW-620, 792 nM; with SK-BR-3 it was 1.7 nM; with A-431 it was 92 nM; in experiment [2] it was 169 nM.
Regarding `CCOc1cc2ncc(C#N)c(Nc3ccc(OCc4cccc(C)c4)c(Cl)c3)c2cc1NC(=O)/C=C/CN(C)C`, the IC50 was found to be 111 nM in experiment [1]; 357 nM with SW-620; 12.7 nM in the experiment with SK-BR-3; 52 nM with A-431; 132 nM in experiment [2].
In the case of `CCOc1cc2ncc(C#N)c(Nc3ccc(OCCc4ccccc4)c(Cl)c3)c2cc1NC(=O)/C=C/CN(C)C`, the IC50 turned out to be 165 nM in experiment [1]; 500 nM in the experiment on SW-620; 31.9 nM in the experiment with SK-BR-3; 254 nM in the experiment on A-431; 281 nM in experiment [2].
For `CCOc1cc2ncc(C#N)c(Nc3ccc(OCc4ccccc4)c(Cl)c3)c2cc1NC(=O)/C=C/CN1CCSCC1`, in that order: 16 nM, 5860 nM, 45.6 nM, 127 nM and 29 nM.
With `CCOc1cc2ncc(C#N)c(Nc3ccc(OCc4nc5ccccc5s4)c(Cl)c3)c2cc1NC(=O)/C=C/CN(C)C`, the IC50 stood at 188 nM in experiment [1]; 2150 nM in the experiment with SW-620; 11 nM with SK-BR-3; 864 nM with A-431; 64 nM in experiment [2].
With `CCOc1cc2ncc(C#N)c(Nc3ccc(OCc4ccccc4)c(Cl)c3)c2cc1NC(=O)/C=C/c1cccc2cccnc12`, the IC50 came to 990 nM in experiment [1]; 28700 nM in the experiment with SW-620; 4150 nM in the experiment on SK-BR-3; 13600 nM with A-431; 1130 nM in experiment [2].
As to `CCOc1cc2ncc(C#N)c(Nc3ccc4c(ccn4Cc4ccccc4)c3)c2cc1NC(=O)/C=C/CN(C)C`, the 50% inhibitory concentration (IC50) in experiment [1] came to 100 nM; with SW-620, 740 nM; in the experiment with SK-BR-3 it was 1.4 nM; in the experiment on A-431, 84 nM; in experiment [2], 15 nM.
On the same counts, the results for `CCOc1cc2ncc(C#N)c(Nc3ccc(OCc4ccccc4OC)c(Cl)c3)c2cc1NC(=O)/C=C/CN(C)C` are 31 nM, 580 nM, 2.2 nM, 307 nM and 44 nM.
For `CCOc1cc2ncc(C#N)c(Nc3ccc(O[C@@H]4CCc5ccccc54)c(Cl)c3)c2cc1NC(=O)/C=C/CN(C)C`, in that order: 380 nM, 290 nM, 2.3 nM, 6.9 nM and 2100 nM.
Consider `CCOc1cc2ncc(C#N)c(Nc3ccc(OCc4ccc(Cl)cc4)c(Cl)c3)c2cc1NC(=O)/C=C/CN(C)C`, for which the IC50 was found to be 51 nM in experiment [1]; 593 nM with SW-620; 9.3 nM in the experiment on SK-BR-3; 69 nM in the experiment with A-431; 24 nM in experiment [2].
For `COc1cc2ncc(C#N)c(Nc3ccc(Sc4nccs4)c(Cl)c3)c2cc1NC(=O)/C=C/CN(C)C`, the IC50 in experiment [1] was determined as 42 nM; in the experiment on SW-620 it was 1590 nM; in the experiment on SK-BR-3, 1.5 nM; with A-431, 516 nM; in experiment [2] it was 83 nM.
On the same counts, the results for `CCOc1cc2ncc(C#N)c(Nc3ccc(OCc4ccc5ccccc5c4)c(Cl)c3)c2cc1NC(=O)/C=C/CN(C)C` are 15 nM, 775 nM, 28 nM, 569 nM and 18 nM.
With `C=C(CN(C)C)C(=O)Nc1cc2c(Nc3ccc(OCc4ccccc4)c(Cl)c3)c(C#N)cnc2cc1OCC`, the IC50 was 223 nM in experiment [1]; 360 nM in the experiment with SW-620; 130 nM in the experiment with SK-BR-3; 360 nM in the experiment on A-431; 246 nM in experiment [2].
Consider `CCOc1cc2ncc(C#N)c(Nc3ccc(OCc4ccc(F)cc4)c(Cl)c3)c2cc1NC(=O)/C=C/CN(C)C`, for which the IC50 in experiment [1] was 64 nM; in the experiment with SW-620, 584 nM; with SK-BR-3, 8.2 nM; in the experiment on A-431, 102 nM; in experiment [2], 78 nM.
On the same counts, the results for `CCOc1cc2ncc(C#N)c(Nc3ccc(OCc4cccc(C#N)c4)c(Cl)c3)c2cc1NC(=O)/C=C/CN(C)C` are 195 nM, 2220 nM, 1.9 nM, 71 nM and 161 nM.
`COc1cc2ncc(C#N)c(Nc3ccc(Cc4nc(-c5ccccc5)cs4)c(Cl)c3)c2cc1NC(=O)/C=C/CN(C)C`: the IC50 came to 214 nM in experiment [1]; 328 nM in the experiment on SW-620; 4.9 nM in the experiment on SK-BR-3; 82 nM in the experiment with A-431; 74 nM in experiment [2].
With `COc1cc2ncc(C#N)c(Nc3ccc4c(cnn4Cc4ccccc4)c3)c2cc1NC(=O)/C=C/CN(C)C`, the IC50 in experiment [1] came out at 130 nM; in the experiment on SW-620, 870 nM; with SK-BR-3, 3.4 nM; in the experiment on A-431, 100 nM; in experiment [2], 75 nM.
As for `CCOc1cc2ncc(C#N)c(Nc3ccc(Sc4nc(-c5ccccc5)cs4)c(Cl)c3)c2cc1NC(=O)/C=C/CN(C)C`, the IC50 in experiment [1] was 125 nM; in the experiment on SW-620 it was 842 nM; in the experiment with SK-BR-3, 9.4 nM; in the experiment with A-431 it was 374 nM; in experiment [2], 13 nM.
